Experimental data reported in US9428726B2, “Modified host cells with efflux pumps” (priority 2010, dated 2016).
Where two headings read alike, the source gives them in different places.

B1: AcrB: Escherichia coli K12 AcrAB efflux pump, plasmid-based copy (protein, UniProt P31224 1-1049, looked up)
Multidrug efflux pump subunit …: MPNFFIDRPIFAWVIAIIIMLAGGLAILKLPVAQYPTIAPPAVTISASYPGADAKTVQDTVTQVIEQNMNGIDNLMYMSSNSDSTGTVQITLTFESGTDADIAQVQVQNKLQLAMPLLPQEVQQQGVSVEKSSSSFLMVVGVINTDGTMTQEDISDYVAANMKDAISRTSGVGDVQLFGSQYAMRIWMNPNELNKFQLTPVDVITAIKAQNAQVAAGQLGGTPPVKGQQLNASIIAQTRLTSTEEFGKILLKVNQDGSRVLLRDVAKIELGGENYDIIAEFNGQPASGLGIKLATGANALDTAAAIRAELAKMEPFFPSGLKIVYPYDTTPFVKISIHEVVKTLVEAIILVFLVMYLFLQNFRATLIPTIAVPVVLLGTFAVLAAFGFSINTLTMFGMVLAIGLLVDDAIVVVENVERVMAEEGLPPKEATRKSMGQIQGALVGIAMVLSAVFVPMAFFGGSTGAIYRQFSITIVSAMALSVLVALILTPALCATMLKPIAKGDHGEGKKGFFGWFNRMFEKSTHHYTDSVGGILRSTGRYLVLYLIIVVGMAYLFVRLPSSFLPDEDQGVFMTMVQLPAGATQERTQKVLNEVTHYYLTKEKNNVESVFAVNGFGFAGRGQNTGIAFVSLKDWADRPGEENKVEAITMRATRAFSQIKDAMVFAFNLPAIVELGTATGFDFELIDQAGLGHEKLTQARNQLLAEAAKHPDMLTSVRPNGLEDTPQFKIDIDQEKAQALGVSINDINTTLGAAWGGSYVNDFIDRGRVKKVYVMSEAKYRMLPDDIGDWYVRAADGQMVPFSAFSSSRWEYGSPRLERYNGLPSMEILGQAAPGKSTGEAMELMEQLASKLPTGVGYDWTGMSYQERLSGNQAPSLYAISLIVVFLCLAALYESWSIPFSVMLVVPLGVIGALLAATFRGLTNDVYFQVGLLTTIGLSAKNAILIVEFAKDLMDKEGKGLIEATLDAVRMRLRPILMTSLAFILGVMPLVISTGAGSGAQNAVGTGVMGGMVTATVLAIFFVPVFFVVVRRRFSRKNEDIEHSHTVDHH
B2: MexB: Pseudomonas aeruginosa PAO1 MexAB-OprM multidrug efflux pump (protein, UniProt P52002 1-1046, looked up)
Multidrug resistance protein …: MSKFFIDRPIFAWVIALVIMLAGGLSILSLPVNQYPAIAPPAIAVQVSYPGASAETVQDTVVQVIEQQMNGIDNLRYISSESNSDGSMTITVTFEQGTDPDIAQVQVQNKLQLATPLLPQEVQRQGIRVTKAVKNFLMVVGVVSTDGSMTKEDLSNYIVSNIQDPLSRTKGVGDFQVFGSQYSMRIWLDPAKLNSYQLTPGDVSSAIQAQNVQISSGQLGGLPAVKGQQLNATIIGKTRLQTAEQFENILLKVNPDGSQVRLKDVADVGLGGQDYSINAQFNGSPASGIAIKLATGANALDTAKAIRQTIANLEPFMPQGMKVVYPYDTTPVVSASIHEVVKTLGEAILLVFLVMYLFLQNFRATLIPTIAVPVVLLGTFGVLAAFGFSINTLTMFGMVLAIGLLVDDAIVVVENVERVMAEEGLSPREAARKSMGQIQGALVGIAMVLSAVFLPMAFFGGSTGVIYRQFSITIVSAMALSVIVALILTPALCATMLKPIEKGDHGEHKGGFFGWFNRMFLSTTHGYERGVASILKHRAPYLLIYVVIVAGMIWMFTRIPTAFLPDEDQGVLFAQVQTPPGSSAERTQVVVDSMREYLLEKESSSVSSVFTVTGFNFAGRGQSSGMAFIMLKPWEERPGGENSVFELAKRAQMHFFSFKDAMVFAFAPPSVLELGNATGFDLFLQDQAGVGHEVLLQARNKFLMLAAQNPALQRVRPNGMSDEPQYKLEIDDEKASALGVSLADINSTVSIAWGSSYVNDFIDRGRVKRVYLQGRPDARMNPDDLSKWYVRNDKGEMVPFNAFATGKWEYGSPKLERYNGVPAMEILGEPAPGLSSGDAMAAVEEIVKQLPKGVGYSWTGLSYEERLSGSQAPALYALSLLVVFLCLAALYESWSIPFSVMLVVPLGVIGALLATSMRGLSNDVFFQVGLLTTIGLSAKNAILIVEFAKELHEQGKGIVEAAIEACRMRLRPIVMTSLAFILGVVPLAISTGAGSGSQHAIGTGVIGGMVTATVLAIFWVPLFYVAVSTLFKDEASKQQASVEKGQ

What was measured:
E. coli DH1 ΔacrAB [1] = conditions: for toxicity of the biofuel to cell growth: E. coli host, in words; for biofuel level that inhibited growth: added to pooled culture in M9 minimal medium, aimed at an inhibitory concentration that reduced growth by 25%
Experimental: In order to screen the efflux pump library against a variety of biofuels we devised a competition-based strategy to select for pumps that improved biofuel tolerance (FIG. 1A). Cells containing plasmids with individual pumps were grown separately and then pooled so that all individual strains were represented equally. This pooled culture was then grown both with and without biofuel, and maintained through serial dilutions every 10-14 hours over a total of 96 hours. At each dilution time point, plasmids from each culture were isolated and a custom microarray was used to quantify the amount of each efflux pump plasmid present in the culture (Methods).
Pooled culture glycerol stocks were used to inoculate M9 minimal medium with 30 μg/ml kanamycin and 10 μM IPTG. The culture was then divided into tubes to a final volume of 5 ml and biofuel was added directly to the tubes. All conditions were prepared in triplicate. Cultures were grown at 37° C. with orbital shaking at 200 rpm for all experiments.
Every 10-14 hours the cultures were diluted 1:100 into 5 ml of fresh M9 minimal medium with kanamycin, IPTG, and biofuel (where applicable). For the time-course assay, cultures were spun down at the completion of a growth cycle and plasmids were isolated. For end point competition assays, plasmid was isolated from the culture after 72 hours of serial dilution.
Custom microarrays (NimbleGen, Roche, USA) were used to measure the relative quantities of the efflux pumps present in the plasmid DNA isolated from the competition cultures. Arrays were designed so that they contained probes for all HAE1 annotated efflux pumps from all sequenced bacterial genomes. 12×135K arrays were used to allow for 12 experiments per slide.
Plasmid DNA was labeled and hybridized following the protocol for NimbleGen Comparative Genomic Hybridization Microarrays with minor modifications (Supporting Methods). Data were normalized using the standard settings for RMA analysis in the NimbleScan software. Probe values were averaged using a custom Matlab script (Mathworks, Inc.). […] For the positive hybridization control, all library plasmids were prepared individually and combined in vitro in equal proportions. For the negative hybridization control, a plasmid with the same vector backbone as those in the library, but no efflux pump, was isolated from DH1 ΔacrAB. Both hybridization controls were labeled and hybridized to the array using the methods described above.
This required the use of a co-solvent in order to accurately pipette small volumes. In both cases dimethylformamide (DMF) was used as the co-solvent. […] Other biofuels were added directly without the use of a co-solvent.

E. coli DH1 ΔacrAB [2] = format: cell-based; conditions: for effect of efflux pumps on tolerance to the biofuel (survival relative to pump-free negative control): top performing pump versus negative control, FIG. 3B and 3D
Experimental: Individual strains were adapted to M9 minimal medium as described in the Supporting Methods. […] The biofuel being tested was added directly to the cultures and they were grown overnight at 37° C. with orbital shaking. For end point measurements, the optical density was measured after 14 hours of growth in triplicate 5 ml cultures. For growth curve measurements, cultures were grown in triplicate in 24-well plates with 800 μl per well and optical density was measured every 10 minutes with a plate reader (BioTek Synergy 4, USA).

[3] = 2% geranyl acetate, serial dilution competition

Molecule	toxicity of the biofuel to cell growth (E. coli DH1 ΔacrAB [1])	biofuel level that inhibited growth (E. coli DH1 ΔacrAB [1]) [% v/v]	effect of efflux pumps on tolerance to the biofuel (survival relative to pump-free negative control) (E. coli DH1 ΔacrAB [2])	outcome of efflux pump in competition (E. coli DH1 ΔacrAB [1]; 0.025% limonene, 72 hours serial dilution)	outcome of efflux pump in competition (E. coli DH1 ΔacrAB [1]; 0.05% geraniol, 72 hours serial dilution)	outcome of efflux pump in competition (E. coli DH1 ΔacrAB [1]; [3])	outcome of efflux pump in competition (E. coli DH1 ΔacrAB [1]; 2% α-pinene, 72 hours serial dilution)	growth of individual pump-expressing strain (E. coli DH1 ΔacrAB [2]; with 2% α-pinene, grown independently)
CC(C)=CCC/C(C)=C/CO [geraniol]	high and quite toxic	0.05	increase survival several-fold	–	–	–	–	–
CC(=O)OC/C=C(\C)CCC=C(C)C [geranyl acetate]	–	2	essentially confer immunity	–	–	–	–	–
CC(C)CCO [isopentanol]	toxic	0.25	none of the pumps we tested confer an advantage	–	–	–	–	–
CCCCO [n-butanol]	toxic	0.5	none of the pumps we tested confer an advantage	–	–	–	–	–
B1	–	–	–	best exported	best exported	survived the competition	–	–
B2	–	–	–	–	–	survived the competition	borderline survivor	survives well in α-pinene for the first 10 hours
